Laboratory results published in PubChem BioAssay (NCI).
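Interpolation was linear, between the two tested concentrations surrounding the appropriate level; five concentrations were tested over 48 hours in 96-well plates. GI50 = concentration required for 50% inhibition of growth. TGI marks complete inhibition of growth.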

Assays:
Assay in all cases: NCI tumour cell line growth inhibition, 48 h
[1] = tested on: A498 renal
[2] = tested on: SW-620 colon
[3] = tested on: K-562 leukemia
[4] = tested on: MDA-MB-231 breast
[5] = tested on: CAKI-1 renal
[6] = tested on: HCT-116 colon
[7] = tested on: SF-268 CNS
[8] = tested on: LOX IMVI melanoma
[9] = tested on: MOLT-4 leukemia
[10] = tested on: OVCAR-3 ovarian
[11] = tested on: KM12 colon
[12] = tested on: HCT-15 colon
[13] = tested on: HCC-2998 colon
[14] = tested on: NCI-H226 lung
[15] = tested on: HOP-92 NSCLC
[16] = tested on: SK-MEL-28 melanoma
[17] = tested on: SF-295 CNS
[18] = tested on: NCI/ADR-RES ovarian
[19] = tested on: MDA-MB-435
[20] = tested on: IGROV1 ovarian
[21] = tested on: TK-10 renal
[22] = tested on: COLO 205 colon
[23] = tested on: SR leukemia
[24] = tested on: OVCAR-5 ovarian
[25] = tested on: SN12C renal
[26] = tested on: SK-OV-3 ovarian
[27] = tested on: CCRF-CEM leukemia
[28] = tested on: NCI-H23 lung
[29] = tested on: MALME-3M melanoma
[30] = tested on: HL-60(TB) leukemia
[31] = tested on: UACC-62 melanoma
[32] = tested on: HOP-62 NSCLC
[33] = tested on: DU-145 prostate
[34] = tested on: BT-549 breast
[35] = tested on: OVCAR-4 ovarian
[36] = tested on: UO-31 renal
[37] = tested on: U251 CNS
[38] = tested on: RXF 393 renal
[39] = tested on: SK-MEL-2 melanoma
[40] = tested on: HS 578T breast
[41] = tested on: PC-3 prostate
[42] = tested on: SF-539 CNS
[43] = tested on: SNB-75 CNS
[44] = tested on: RPMI-8226 leukemia
[45] = tested on: NCI-H522 lung
[46] = tested on: A549 NSCLC
[47] = tested on: SNB-19 CNS
[48] = tested on: T-47D breast
[49] = tested on: SK-MEL-5 melanoma
[50] = tested on: NCI-H460 lung
[51] = tested on: M14 melanoma
[52] = tested on: MCF7 breast
[53] = tested on: HT29 colon
[54] = tested on: 786-0 renal
[55] = tested on: OVCAR-8 ovarian
[56] = tested on: ACHN renal

## FC(F)(F)c1cc(NC2=NCCN=C(Nc3cc(C(F)(F)F)cc(C(F)(F)F)c3)SS2)cc(C(F)(F)F)c1
[1]
  GI50: 2240 nM
  TGI: 9.68 µM
[2]
  GI50: 3.71 µM
  TGI: 14.8 µM
[3]
  GI50: 3.58 µM
  TGI: 17.6 µM
[4]
  GI50: 3.59 µM
  TGI: 15 µM
[5]
  GI50: 3.12 µM
  TGI: 13.1 µM
[6]
  GI50: 3.73 µM
  TGI: 12.5 µM
[7]
  GI50: 5.68 µM
  TGI: 19.8 µM
[8]
  GI50: 4.59 µM
  TGI: 16.9 µM
[9]
  GI50: 4.71 µM
  TGI: 28 µM
[10]
  GI50: 2940 nM
  TGI: 8.64 µM
[11]
  GI50: 3.72 µM
  TGI: 12.3 µM
[12]
  GI50: 3.33 µM
  TGI: 14.2 µM
[13]
  GI50: 6.15 µM
  TGI: 19.3 µM
[14]
  GI50: 3.07 µM
  TGI: 16.2 µM
[15]
  GI50: 1520 nM
  TGI: 5.01 µM
[16]
  GI50: 6.07 µM
  TGI: 19.4 µM
[17]
  GI50: 3.08 µM
  TGI: 12.2 µM
[18]
  GI50: 5.23 µM
  TGI: 21.5 µM
[19]
  GI50: 3.83 µM
  TGI: 14.1 µM
[20]
  GI50: 6.04 µM
  TGI: 26.3 µM
[21]
  GI50: 5.25 µM
  TGI: 19.8 µM
[22]
  GI50: 3.47 µM
  TGI: 13.2 µM
[23]
  GI50: 3.76 µM
  TGI: 20.4 µM
[24]
  GI50: 5.94 µM
  TGI: 19.7 µM
[25]
  GI50: 3.29 µM
  TGI: 13.1 µM
[26]
  GI50: 8.63 µM
  TGI: 54.3 µM
[27]
  GI50: 4.28 µM
  TGI: 27 µM
[28]
  GI50: 4.75 µM
  TGI: 17.4 µM
[29]
  GI50: 4.12 µM
  TGI: 15.5 µM
[30]
  GI50: 3.27 µM
  TGI: 15.8 µM
[31]
  GI50: 3.55 µM
  TGI: 14.5 µM
[32]
  GI50: 13.1 µM
  TGI: 31.3 µM
[33]
  GI50: 6.24 µM
  TGI: 18.9 µM
[34]
  GI50: 6.2 µM
  TGI: 19.1 µM
[35]
  GI50: 3.65 µM
  TGI: 17 µM
[36]
  GI50: 2660 nM
  TGI: 11.9 µM
[37]
  GI50: 2820 nM
  TGI: 10.7 µM
[38]
  GI50: 2660 nM
  TGI: 11.2 µM
[39]
  GI50: 4.49 µM
  TGI: 14.3 µM
[40]
  GI50: 5.08 µM
  TGI: 27.6 µM
[41]
  GI50: 3 µM
  TGI: 12.1 µM
[42]
  GI50: 5.21 µM
  TGI: 18.3 µM
[43]
  GI50: 9.35 µM
  TGI: 45.6 µM
[44]
  GI50: 2580 nM
  TGI: 8.8 µM
[45]
  GI50: 2840 nM
  TGI: 10.6 µM
[46]
  GI50: 3.68 µM
  TGI: 17.4 µM
[47]
  GI50: 4.08 µM
  TGI: 15.4 µM
[48]
  GI50: 4.22 µM
  TGI: 23.7 µM
[49]
  GI50: 3.2 µM
  TGI: 11.9 µM
[50]
  GI50: 3.7 µM
  TGI: 14.2 µM
[51]
  GI50: 6.87 µM
  TGI: 26.6 µM
[52]
  GI50: 2900 nM
  TGI: 12.6 µM
[53]
  GI50: 3.85 µM
  TGI: 14.1 µM
[54]
  GI50: 5.26 µM
  TGI: 17.7 µM
[55]
  GI50: 3.7 µM
  TGI: 16.9 µM
[56]
  GI50: 2600 nM
  TGI: 8.93 µM
